Patent US8258118B2, “4-pyridinone compounds and their use for cancer” (Bristol-Myers Squibb Company, priority 2008, dated 2012)

Legend:
[1] = target: T1, GST-Met kinase (Homo sapiens, UniProt P08581); test: Met kinase assay; type: biochemical
T1 construct: made in house
Method: Incubation mixtures employed for the Met kinase assay contain a baculovirus expressed GST-Met kinase, the synthetic substrate polyGlu:Tyr, (4:1), ATP, ATP-γ-^33P and buffer containing Mn^+2, DTT, BSA, and Tris. Reactions were incubated for 60 minutes at 30° C. and stopped by the addition of cold trichloroacetic acid (TCA) to a final concentration 8%. TCA precipitates were collected onto GF/C UniFilter plates (Packard Instrument Co., Meriden, Conn.) using a FILTERMATE® universal harvester (Packard Instrument Co., Meriden, Conn.) and the filters are quantitated using a TopCount 96/384-well liquid scintillation counter (Packard Instrument Co., Meriden, Conn.). Dose response curves were generated to determine the concentration required to inhibit 50% of kinase activity (IC50). Compounds were dissolved at 10 mM in dimethyl sulfoxide (DMSO) and evaluated at ten concentrations, each in duplicate. The final concentration of DMSO in the assay is 1.7%. IC50 values were derived by non-linear regression.

[2] = target: VEGFR-2 (Homo sapiens, UniProt P35968); test: VEGFR-2 kinase assay; type: biochemical
VEGFR-2, sequence (P35968 20-1356): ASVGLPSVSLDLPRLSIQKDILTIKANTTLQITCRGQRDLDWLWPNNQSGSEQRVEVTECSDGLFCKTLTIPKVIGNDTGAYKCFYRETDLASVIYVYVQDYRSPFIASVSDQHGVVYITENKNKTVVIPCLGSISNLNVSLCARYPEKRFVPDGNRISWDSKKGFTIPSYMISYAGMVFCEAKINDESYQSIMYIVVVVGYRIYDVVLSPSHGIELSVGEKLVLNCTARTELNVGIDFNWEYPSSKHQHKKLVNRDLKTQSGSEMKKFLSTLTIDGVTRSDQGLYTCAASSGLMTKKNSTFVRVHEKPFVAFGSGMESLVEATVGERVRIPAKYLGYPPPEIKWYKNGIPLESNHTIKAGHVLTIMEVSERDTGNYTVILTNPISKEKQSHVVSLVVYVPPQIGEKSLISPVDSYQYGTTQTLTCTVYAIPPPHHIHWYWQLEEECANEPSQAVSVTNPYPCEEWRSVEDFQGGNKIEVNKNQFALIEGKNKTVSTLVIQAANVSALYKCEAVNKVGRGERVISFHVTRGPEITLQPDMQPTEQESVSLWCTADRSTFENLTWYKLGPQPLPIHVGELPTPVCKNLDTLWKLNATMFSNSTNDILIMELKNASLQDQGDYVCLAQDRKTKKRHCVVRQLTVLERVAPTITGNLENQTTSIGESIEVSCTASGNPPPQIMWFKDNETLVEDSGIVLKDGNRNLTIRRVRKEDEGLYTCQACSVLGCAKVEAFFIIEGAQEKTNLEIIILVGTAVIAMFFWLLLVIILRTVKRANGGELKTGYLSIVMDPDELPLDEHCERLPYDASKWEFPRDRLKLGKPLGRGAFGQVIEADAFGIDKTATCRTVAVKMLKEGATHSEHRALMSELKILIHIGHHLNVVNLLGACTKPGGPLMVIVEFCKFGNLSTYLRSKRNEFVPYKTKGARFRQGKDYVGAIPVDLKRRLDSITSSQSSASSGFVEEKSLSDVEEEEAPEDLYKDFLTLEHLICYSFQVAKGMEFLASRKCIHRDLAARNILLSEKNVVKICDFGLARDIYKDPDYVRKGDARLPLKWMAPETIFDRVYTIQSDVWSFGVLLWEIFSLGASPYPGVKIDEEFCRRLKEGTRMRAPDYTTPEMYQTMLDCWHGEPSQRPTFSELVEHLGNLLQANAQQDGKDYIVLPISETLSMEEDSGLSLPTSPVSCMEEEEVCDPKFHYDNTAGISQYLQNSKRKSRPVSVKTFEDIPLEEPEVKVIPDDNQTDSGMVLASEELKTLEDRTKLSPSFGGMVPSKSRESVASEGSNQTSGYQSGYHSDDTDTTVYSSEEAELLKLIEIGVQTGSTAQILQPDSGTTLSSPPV
Method: Incubation mixtures employed for the VEGFR-2 assay contain the synthetic substrate poly glu/tyr, (4:1), ATP, ATP-γ-^33P and buffer containing Mn^+2, DTT, BSA, and Tris buffer. The reaction is initiated by addition of enzyme and after 60 minutes at room temperature is terminated by the addition of 30% TCA to a final concentration of 15% TCA. Inhibitors are brought to 10 mM in 100% DMSO. Assays are prepared in a 96 well format in quadruplicate. Compounds are diluted 1:500 in 100% DMSO and then 1:10 in water for a final DMSO concentration of 10%. Aliquots (10 μL) are added to rows B-H in a 96 well format of 10% DMSO. The compound (20 μl) is added to row A at a concentration 5 fold higher than running conditions. Aliquots (10 μL) are transferred to each row followed by six serial dilutions with mixing, and at row F 10 μL are discarded. Row G is a control with no compound and row H is no compound and no enzyme control. Enzyme and substrate are delivered using a Tomtec Quadra station.
Plates are covered with sticky plate tops, incubated at 27° C. for 60 minutes, and then acid precipitated with TCA for 20 minutes on ice. […] Activity is determined by quantitating the incorporated radioactivity using a Packard TopCount Microplate Scintillation Counter following the addition of Microscint-20 cocktail into each dried well of the UniFilter microplates.

[3] = test system: GTL-16 cells; test: GTL-16 gastric carcinoma proliferation assay (MTS); type: cell-based; details: Homo sapiens, 72 h, 0.5% fetal calf serum
Method: Inhibition of GTL-16 cell growth was assessed by a MTS assay using a CELLTITER 96® Aqueous Non-Radioactive Proliferation Assay kit from Promega. The kit is composed of solutions of a novel tetrazolium compound (3-(4,5-dimethylthiazol-2-yl)-5-(3-carboxymethoxyphenyl)-2-(4-sulfophenyl)-2H-tetrazolium, inner salt; MTS) and an electron coupling reagent (phenazine methosulfate, PMS). In this colormetric assay, the conversion of MTS into aqueous, soluble formazan is accomplished by dehydrogenase enzymes found in metabolically active cells. The quantity of formazan product as measured by its absorbance at 490 nm is directly proportional to the number of living cells in culture.
GTL-16 cells were inoculated into 96 well microtiter plates in 0.5% fetal calf serum and incubated at 37° C., 5% CO2, 95% air and 100% relative humidity for 24 h prior to addition of a compound. At the time of drug treatment, one plate of the cell line was processed using the above kit to represent a measurement of the cell population at the time of drug addition. Following drug treatment, the plates were incubated for an additional 72 h before processing, and measuring cell populations. Each compound was tested at 8 different concentrations in triplicate, as was the untreated control sample. Growth inhibition of 50% (IC50) is calculated by analysis of the data in Excel that uses a 4 parameter logistic equation with data fitted using the Levenburg Marquardt algorithm

[4] = test system: GTL-16 gastric carcinoma xenografts; test: In vivo efficacy, GTL-16 human gastric tumor xenograft model; details: for overt toxicity: administered once daily for 14 days, any of the dose levels
Method: N-(4-(2-Amino-3-chloropyridin-4-yloxy)-3-fluorophenyl)-5-(4-fluorophenyl)-4-oxo-1,4-dihydropyridine-3-carboxamide (Example 1) and (3-(4-(2-amino-3-chloropyridin-4-yloxy)-3-fluorophenylcarbamoyl)-5-(4-fluorophenyl)-4-oxopyridin-1(4H)-yl)methyl dihydrogen phosphate (Example 2) were evaluated for in vivo efficacy against the GTL-16 human gastric tumor xenograft model. Example 2 is a prodrug of Example 1.

[5] = test system: U87 glioblastoma xenografts; test: In vivo efficacy, U87 glioblastoma xenograft model; details: 25 mg/kg, dosed orally once daily for 14 days
Method: Example 1 was also tested in the U87 glioblastoma model, a Met driven tumor based on an HGF autocrine mechanism of Met activation.

T1 sequence (P08581 25-1390): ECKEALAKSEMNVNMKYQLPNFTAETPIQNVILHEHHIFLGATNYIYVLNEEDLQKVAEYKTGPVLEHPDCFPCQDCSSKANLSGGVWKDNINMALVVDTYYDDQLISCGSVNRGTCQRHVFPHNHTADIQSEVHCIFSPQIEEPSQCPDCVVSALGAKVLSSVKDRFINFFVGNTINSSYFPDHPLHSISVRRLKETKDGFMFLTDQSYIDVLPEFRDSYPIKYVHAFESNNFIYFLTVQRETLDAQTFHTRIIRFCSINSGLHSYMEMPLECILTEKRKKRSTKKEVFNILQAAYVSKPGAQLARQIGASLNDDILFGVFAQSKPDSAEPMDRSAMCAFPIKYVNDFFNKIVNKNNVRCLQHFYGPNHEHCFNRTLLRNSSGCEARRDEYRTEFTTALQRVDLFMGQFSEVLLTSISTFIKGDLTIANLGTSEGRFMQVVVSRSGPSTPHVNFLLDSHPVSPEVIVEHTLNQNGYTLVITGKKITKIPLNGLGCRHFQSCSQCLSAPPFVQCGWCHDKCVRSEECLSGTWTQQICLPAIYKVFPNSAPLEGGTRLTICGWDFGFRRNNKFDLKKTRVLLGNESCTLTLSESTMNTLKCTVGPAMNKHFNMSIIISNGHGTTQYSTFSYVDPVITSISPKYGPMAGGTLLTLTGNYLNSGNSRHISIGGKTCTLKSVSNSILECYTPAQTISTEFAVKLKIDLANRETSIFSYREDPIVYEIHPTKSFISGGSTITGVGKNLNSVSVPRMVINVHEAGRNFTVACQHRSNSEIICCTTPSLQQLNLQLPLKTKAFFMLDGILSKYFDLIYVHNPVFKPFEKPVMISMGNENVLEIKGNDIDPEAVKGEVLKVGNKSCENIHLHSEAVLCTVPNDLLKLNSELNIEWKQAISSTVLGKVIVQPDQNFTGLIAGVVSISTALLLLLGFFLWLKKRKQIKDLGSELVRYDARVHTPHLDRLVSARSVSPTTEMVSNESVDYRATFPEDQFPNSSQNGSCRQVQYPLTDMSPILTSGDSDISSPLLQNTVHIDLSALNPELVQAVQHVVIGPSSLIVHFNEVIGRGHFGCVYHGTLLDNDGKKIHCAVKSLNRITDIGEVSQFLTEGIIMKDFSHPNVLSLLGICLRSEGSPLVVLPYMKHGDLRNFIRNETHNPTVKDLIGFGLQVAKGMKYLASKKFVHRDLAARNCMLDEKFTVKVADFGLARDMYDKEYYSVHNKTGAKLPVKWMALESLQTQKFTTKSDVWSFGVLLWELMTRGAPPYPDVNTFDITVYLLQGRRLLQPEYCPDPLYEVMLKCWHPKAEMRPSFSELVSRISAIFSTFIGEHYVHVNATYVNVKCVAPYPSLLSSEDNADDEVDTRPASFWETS

IC50 [1]	IC50 [3]	SMILES	IC50 [2]	antitumor activity (tumor stasis) ([4]; 31.2 mg/kg of Example 2 (equimolar to 25 mg/kg Example 1), once daily for 14 days)	overt toxicity [4]	antitumor activity (tumor stasis) [5]	antitumor activity (tumor stasis) ([4]; 25 mg/kg of Example 1, once daily for 14 days)
4.8 nM	170 nM	Nc1cc(Oc2ccc(NC(=O)c3cccn(-c4ccc(F)cc4)c3=O)cc2F)ccn1 [Compound B, N-(4-(2-Aminopyridin-4-yloxy)-3-fluorophenyl)-1-(4-fluorophenyl)-2-oxo-1,2-dihydropyridine-3-carboxamide]	40 nM	–	–	–	–
160 nM	5400 nM	Nc1cc(Oc2ccc(NC(=O)c3c[nH]cc(Cc4ccccc4)c3=O)cc2F)ccn1 [Compound A, N-(4-(2-Aminopyridin-4-yloxy)-3-fluorophenyl)-5-benzyl-4-oxo-1,4-dihydropyridine-3-carboxamide]	–	–	–	–	–
–	–	Nc1nccc(Oc2ccc(NC(=O)c3cn(COP(=O)(O)O)cc(-c4ccc(F)cc4)c3=O)cc2F)c1Cl [Example 2, (3-(4-(2-Amino-3-chloropyridin-4-yloxy)-3-fluorophenylcarbamoyl)-5-(4-fluorophenyl)-4-oxopyridin-1(4H)-yl)methyl dihydrogen phosphate]	–	complete tumor stasis	No overt toxicity	–	–

SMILES	IC50 [1]	IC50 [3]	IC50 [2]	antitumor activity (tumor stasis) ([4]; 31.2 mg/kg of Example 2 (equimolar to 25 mg/kg Example 1), once daily for 14 days)	overt toxicity [4]	antitumor activity (tumor stasis) [5]	antitumor activity (tumor stasis) ([4]; 25 mg/kg of Example 1, once daily for 14 days)
Nc1nccc(Oc2ccc(NC(=O)c3c[nH]cc(-c4ccc(F)cc4)c3=O)cc2F)c1Cl [Example 1, N-(4-(2-Amino-3-chloropyridin-4-yloxy)-3-fluorophenyl)-5-(4-fluorophenyl)-4-oxo-1,4-dihydropyridine-3-carboxamide]	1.7 nM	39 nM	15 nM	–	No overt toxicity	complete tumor stasis	complete tumor stasis
